The source of these data is patent US10092620B2, “Uses of cyclic peptides for treating and preventing atherosclerosis” (THE SCRIPPS RESEARCH INSTITUTE, priority 2013, dated 2018).

Data set [1] can be described thus: mouse pharmacokinetics, i.p., LC-MS SIM. Type of data set: in vivo. Particulars: male, BALB/cByJ, plasma, ip, BALB/c mice, i.p. 16 mg/kg. On the procedure:
Pharmacokinetics: The TSRI Institutional Animal Care and Use Committee approved all experimental protocols involving live animals. Male mice (20 g) on a BALB/cByJ background were obtained from the Rodent Breeding Colony of the Department of Animal Resources at TSRI, and were maintained on a chow diet. The cyclic peptide c[wLwReQeR], 1, was dissolved in PBS containing 1% sucrose, and sterile filtered through a 0.22-μm syringe filter before injection. Mice were fasted beginning 12 h before dosing, and continued the fast until after the 8-h time point blood draw was completed. Groups of three mice received a 16-mg/kg dose of the cyclic peptide via intraperitoneal injection (0.3 mL). Blood was drawn (30-60 μL) from the retro-orbital sinus into a heparinized capillary tube before dosing (0 min) and at different intervals from 30 min to 8 h after dosing. Plasma was isolated immediately from the whole blood by centrifugation at 5000 rpm for 10 min at 4° C. […] The resultant supernatant was analyzed by using LC-MS SIM as described below.
LC-MS SIM quantitation of peptide concentration: Cyclic peptide concentrations were quantified by using reverse-phase HPLC coupled with mass spectrometry. […] For quantitative calibration, standard curves were established using mouse EDTA-anticoagulated plasma spiked with various concentrations of the peptide. […]

The subject of data set [2] is HDL in human plasma. Put plainly: pre-beta HDL ELISA assay: remodeling HDL in human plasma in vitro. Type of data set: biochemical. Particulars: pre-beta HDL ELISA. On the procedure: First, various cyclic peptides, including the majority of compounds shown in FIG. 2, were assessed for activities for remodeling HDL in human plasma in vitro. Unlike western blot which was used to generate data shown in FIG. 2, here a pre-beta HDL ELISA assay was used to measure pre-beta HDL levels. Results from the assay are shown in Table 1, which lists the peptides in the order of their activities in remodeling HDL.

Data set [3] in a line: body, liver and spleen weights, food and water intake. It counts as in vivo, mouse. As to conditions: oral ~25 mg/kg/day, 10 weeks, LDLr-null mice. On the procedure: Body weight was measured weekly. Mice were weighed prior to fasting. Liver and spleen weights were determined at the end of treatment.
The test system of data set [4] is LDLr-null mice. In words: evaluation of atherosclerosis: whole aorta lesion area and aortic sinus lesion volume. Type of data set: in vivo, mouse. As to conditions: 10 weeks. An excerpt: In vivo efficacy study: LDL receptor-null (LDLr^−/−) mice on a C57BL/6J background were initially purchased from Jackson Laboratories (Bar Harbor, Me.) and were bred in house. The mice were weaned at 4 weeks of age and were fed ad libitum a standard chow diet (Harlan Teklad 7019) until they were 10-weeks old, when they were switched to a high-fat Western diet (WD) containing 15.8% (wt/wt) fat, 1.25% (wt/wt) cholesterol, and no cholate (Harlan Teklad 94059). At the time that the WD was started, the test cyclic peptide was added to the drinking water at a high dose of 180 μM (200 μg/mL) or a low dose of 18 μM (20 μg/mL) and the mice (female, n=8 per dosing group) were continued on WD for 10 weeks. The lyophilized peptide was easily dissolved in PBS (pH 7.4) containing 1% sucrose, resulting in a clear solution. The drinking water solution was replaced with fresh solution every day. A control group of eight mice (female, n=8) were fed WD with vehicle (PBS with 1% sucrose) drinking water. The mice consumed approximately 2.5 mL of water per day per mouse, and there was no significant difference in water or food consumption between groups.
Evaluation of atherosclerosis: Atherosclerotic lesion severity was assessed in the aortae as previously described in Mullick et al., J. Clin. Invest. 115, 3149-3156, 2005. Briefly, at euthanasia, animals were perfused with PBS, followed by 4% formaldehyde (10% UltraPure EM Grade from Polysciences diluted in PBS, pH 7.2). For en face analysis, the entire mouse aorta was dissected from the proximal ascending aorta to the bifurcation of the iliac artery by using a dissecting microscope. Adventitial fat was removed, and the aorta was opened longitudinally, pinned flat onto black dissecting wax, stained with Sudan IV, and photographed at a fixed magnification. The photographs were digitized, and total aortic areas and lesion areas were calculated by using Adobe Photoshop version CS4, Chromatica V, and NIH Scion Image software (http://rsb.info.nih.gov/nih-image/Default.html). The results were reported as a percentage of the total aortic area that contained lesions.
As a second assessment of atherosclerosis, lesions of the aortic root (heart sinus) were analyzed. Utilizing stereological principles, lesion volume was estimated across a fixed distance of the aortic sinus. […] Lesion areas found only within the valve cusp were measured. […] Lesion volume was calculated from an integration of the measured cross-sectional areas. […]
Other than their in vivo cholesterol reducing activities, several peptides were also examined for ability to inhibit development of atherosclerotic legions in vivo. […] All charts in the figure are shown as a scatter plot along with mean±SD. p values were determined by the one-way ANOVA test with a post hoc Tukey-Kramer test.

The mark [5] stands for this setting: oral ~25 mg/kg/day, LDLr-null mice, high-fat diet, vs control.

Non-standard residues stand in square brackets, D forms with d. Residues, ends and D or L forms follow the SMILES beside them.

In turn, `CC(C)C[C@@H]1NC(=O)[C@@H](Cc2c[nH]c3ccccc23)NC(=O)[C@H](CCCNC(=N)N)NC(=O)[C@@H](CCC(=O)O)NC(=O)[C@H](CCC(N)=O)NC(=O)[C@@H](CCC(=O)O)NC(=O)[C@H](CCCNC(=N)N)NC(=O)[C@@H](Cc2c[nH]c3ccccc23)NC1=O` [SEQ ID NO:1, c[wLwReQeR]] (cyclo([dW]L[dW]R[dE]Q[dE]R)) gave a half-life in data set [1] of around 2 h. In data set [2], the “Pre-beta HDL generated (normalized level)” value worked out at 0.88. In addition, in data set [3], the “body weight, difference between groups” value is “No differences”; the “food or water intake, difference between groups” value was “No differences”; the “liver weight, difference between groups” value is reported as “No differences”; the “spleen weight, difference between groups” value is “No differences”. Besides, the “atherosclerotic lesions vs control (in words)” value in data set [4] (10-fold lower dose in drinking water) was “no significant differences”. Besides, in data set [4] (setting [5]), the “reduction in aortic sinus lesion volume” value came to 50% and the “reduction in whole aorta lesion area” value is 26%.
